# Literature values as cited in US10927398B2, “Compositions for CYP450 phenotyping using saliva samples” (Concordia University, Inc., priority 2015, dated 2021).
# Where two headings read alike, the source gives them in different places.
# Tests used:
# plasma protein = settings: cited from earlier work
# [1] = cited from earlier work
# [2] = cited from earlier work; remark: listed apart in the source
# [3] = Table of Exemplary Drugs, CYP1A2
# [4] = Table of Exemplary Drugs, CYP3A4
# [5] = Table of Exemplary Drugs, CYP2D6
# [6] = Table of Exemplary Drugs, CYP2C9
# [7] = Table of Exemplary Drugs, CYP2C19
compound,measurement,setting,value
COc1ccc2cccc(CCNC(C)=O)c2c1 [Agomelatine],PLASMA PROTEIN BINDING,plasma protein; [3],95%
same,HALF-LIFE,[1]; [3],1 to 2 h
same,ORAL BIOAVAILABILITY,[2]; [3],<5%
"COc1cc2nc(N(C)CCCNC(=O)C3CCCO3)nc(N)c2cc1OC (stereo not drawn) [Alfazosin (Uroxatral), Alfazosin]",PLASMA PROTEIN BINDING,plasma protein; plasma,86%
same,HALF-LIFE,[1]; in vivo,10 h
same,ORAL BIOAVAILABILITY,"[2]; in vivo, po",49%
"Cc1nnc2n1-c1ccc(Cl)cc1C(c1ccccc1)=NC2 [Alprazolam (Xanax), Alprazolam]",PLASMA PROTEIN BINDING,plasma protein; [4],80%
same,HALF-LIFE,[1]; [4],11 h
same,ORAL BIOAVAILABILITY,[2]; [4],90%
C=CCc1ccccc1OCC(O)CNC(C)C (stereo not drawn) [Alprenolol],PLASMA PROTEIN BINDING,plasma protein; [5],80%
same,HALF-LIFE,[1]; [5],2 to 3 h
same,ORAL BIOAVAILABILITY,[2]; [5],20%
CN(C)CCC=C1c2ccccc2CCc2ccccc21 [Amitriptyline],PLASMA PROTEIN BINDING,plasma protein; [3],>90%
same,PLASMA PROTEIN BINDING,plasma protein; [6],>90%
same,PLASMA PROTEIN BINDING,plasma protein; [7],>90%
same,PLASMA PROTEIN BINDING,plasma protein; [5],>90%
same,HALF-LIFE,[1]; [3],~13 to 36 h
same,HALF-LIFE,[1]; [6],15 h
same,HALF-LIFE,[1]; [7],15 h
same,HALF-LIFE,[1]; [5],~13 to 36 h
same,ORAL BIOAVAILABILITY,[2]; [3],~43-46%
same,ORAL BIOAVAILABILITY,[2]; [6],30-60%
same,ORAL BIOAVAILABILITY,[2]; [7],30-60%
same,ORAL BIOAVAILABILITY,[2]; [5],~43-46%
"CCOC(=O)C1=C(COCCN)NC(C)=C(C(=O)OC)C1c1ccccc1Cl (stereo not drawn) [Amlodipine (Norvasc), Amlodipine]",ORAL BIOAVAILABILITY,[2]; [4],64-90%
CC(N)Cc1ccccc1 (stereo not drawn) [Amphetamine],ORAL BIOAVAILABILITY,"[2]; in vivo, po",100+%
"C[C@@H](O[C@H]1OCCN(Cc2n[nH]c(=O)[nH]2)[C@H]1c1ccc(F)cc1)c1cc(C(F)(F)F)cc(C(F)(F)F)c1 [Aprepitant (Emend), Aprepitant]",PLASMA PROTEIN BINDING,plasma protein; [4],95%
same,HALF-LIFE,[1]; [4],9 to 13 h
same,ORAL BIOAVAILABILITY,[2]; [4],60-65%
"COC(=O)N[C@H](C(=O)N[C@@H](Cc1ccccc1)[C@@H](O)CN(Cc1ccc(-c2ccccn2)cc1)NC(=O)[C@@H](NC(=O)OC)C(C)(C)C)C(C)(C)C [Atazanavir (Reyataz), Atazanavir]",PLASMA PROTEIN BINDING,plasma protein; [4],86%
same,HALF-LIFE,[1]; [4],7 h
same,ORAL BIOAVAILABILITY,[2]; [4],60-68%
CNCC[C@@H](Oc1ccccc1C)c1ccccc1 [Atomoxetine],PLASMA PROTEIN BINDING,plasma protein; [5],98%
same,HALF-LIFE,[1]; [5],5.2 h
same,ORAL BIOAVAILABILITY,[2]; [5],63%
"COc1ccccc1Oc1c(NS(=O)(=O)c2ccc(C(C)(C)C)cc2)nc(-c2ncccn2)nc1OCCO [Basentan (Tracleer), Basentan]",PLASMA PROTEIN BINDING,plasma protein; [4],98%
same,HALF-LIFE,[1]; [4],5 h
same,ORAL BIOAVAILABILITY,[2]; [4],50%
"CC(C)COCC(CN(Cc1ccccc1)c1ccccc1)N1CCCC1 (stereo not drawn) [Bepridil (Vascor), Bepridil]",HALF-LIFE,[1]; [4],42 h
same,ORAL BIOAVAILABILITY,[2]; [4],60%
"CC(C)C[C@H]1C(=O)N2CCC[C@H]2[C@]2(O)O[C@](NC(=O)[C@@H]3C=C4c5cccc6[nH]c(Br)c(c56)C[C@H]4N(C)C3)(C(C)C)C(=O)N12 [Bromocriptine (Parlodel), Bromocriptine]",PLASMA PROTEIN BINDING,plasma protein; [4],90-96% ^
same,HALF-LIFE,[1]; [4],6 to 20 h
same,ORAL BIOAVAILABILITY,[2]; [4],65-95%
"CCCC1O[C@@H]2C[C@H]3[C@@H]4CCC5=CC(=O)C=C[C@]5(C)[C@H]4[C@@H](O)C[C@]3(C)[C@]2(C(=O)CO)O1 (stereo partly drawn) [Budesonide (Entocort), Budesonide]",PLASMA PROTEIN BINDING,plasma protein; [4],85-90% ^
same,HALF-LIFE,[1]; [4],2 to 3.6 h
same,ORAL BIOAVAILABILITY,[2]; [4],9-21%
COc1ccccc1OCCNCC(O)COc1cccc2[nH]c3ccccc3c12 (stereo not drawn) [Carvedilol],PLASMA PROTEIN BINDING,plasma protein; [5],95-98% ^
same,HALF-LIFE,[1]; [5],6 to 10 h
same,ORAL BIOAVAILABILITY,[2]; [5],25-35%
CN(C)CCCN1c2ccccc2Sc2ccc(Cl)cc21 [Chlorpromazine],PLASMA PROTEIN BINDING,plasma protein; [5],90-99% ^
same,HALF-LIFE,[1]; [5],6 h
same,ORAL BIOAVAILABILITY,[2]; [5],32%
COc1cc2c(c(OC)c1OC)-c1ccc(OC)c(=O)cc1[C@@H](NC(C)=O)CC2 [Colchicine],HALF-LIFE,[1]; [4],26.6 to 31.2 h
same,ORAL BIOAVAILABILITY,[2]; [4],45%
"Nc1ccc(S(=O)(=O)c2ccc(N)cc2)cc1 [Dapsone (Avlosulfon), Dapsone]",PLASMA PROTEIN BINDING,plasma protein; [4],70-90% ^
same,ORAL BIOAVAILABILITY,[2]; [4],86-104%
"CC(C)CN(C[C@@H](O)[C@H](Cc1ccccc1)NC(=O)O[C@H]1CO[C@H]2OCC[C@H]21)S(=O)(=O)c1ccc(N)cc1 [Darunavir (Prezista), Darunavir]",ORAL BIOAVAILABILITY,[2]; [4],37%
O=C(O)Cc1ccccc1Nc1c(Cl)cccc1Cl [Diclofenac],HALF-LIFE,[1]; [6],1.9 to 2.2 h
same,ORAL BIOAVAILABILITY,[2]; [6],50%
"CN1C[C@H](C(=O)N[C@]2(C)O[C@@]3(O)[C@@H]4CCCN4C(=O)[C@H](Cc4ccccc4)N3C2=O)C=C2c3cccc4[nH]cc(c34)C[C@H]21 [Ergotamine (Ergomar), Ergotamine]",HALF-LIFE,[1]; in vivo,1.5 to 2.5 h
same,ORAL BIOAVAILABILITY,"[2]; in vivo, po",<5%
"CCC1(C)CC(=O)NC1=O (stereo not drawn) [Ethosuximide (Zarontin), Ethosuximide]",HALF-LIFE,[1]; [4],25 to 60 h
same,ORAL BIOAVAILABILITY,[2]; [4],93%
"CCOC(=O)C1=C(C)NC(C)=C(C(=O)OC)C1c1cccc(Cl)c1Cl (stereo not drawn) [Felodipine (Plendil), Felodipine]",ORAL BIOAVAILABILITY,[2]; [4],13-20%
"CC(C)(C)NC(=O)[C@H]1CC[C@H]2[C@@H]3CC[C@H]4NC(=O)C=C[C@]4(C)[C@H]3CC[C@]12C [Finasteride (Proscar), Finasteride]",HALF-LIFE,[1]; [4],4.5 h
same,ORAL BIOAVAILABILITY,[2]; [4],65%
